Data reported in patent publication US20210333284A1, “METHODS AND MATERIALS FOR LARGE-SCALE ASSESSMENT OF LIGAND BINDING SELECTIVITY OF G-QUADRUPLEX RECOGNITION USING CUSTOM G4 MICROARRAYS” (Purdue Research Foundation, priority 2020, published 2021).

Experiments:
[1] = tested on: G4 sequences on custom G4 microarray; assay: G4 microarray competition of unlabeled molecule with Cy5-PDS; type: binding, human
Source text: Whether the microarray platform could be used to reveal the G4-binding specificity of unlabeled molecules via a competition with Cy5-PDS binding was explored. Three example molecules, unlabeled PDS, TMPyP4 (a planar molecule that nonspecifically binds G4 structures^14), and DC-34 (a molecule that selectively binds the MYC G4^15) were examined. […] The binding of unlabeled DC-34 was examined (FIG. 4). There appear to be no features that are better-bound in the presence of DC-34. […] This is consistent with the observation that DC-34 binds the top and bottom surfaces of the G4 and makes specific contacts with purines in the tail sequences.^15 The general properties of features in which DC-34 reduced binding of Cy5-PDS (ratio of PDS/PDS+DC-34) were also examined.
Microarrays were preincubated with a 100 mM potassium chloride solution for 1 h at RT to induce G4 formation. Protein binding microarray experiments were then performed as previously described.^23 Microarrays were blocked with 4% nonfat dry milk in a potassium phosphate buffer before incubation with proteins or small molecules. Expressed proteins were blocked with 4% nonfat dry milk, ssDNA, and BSA. For the validation experiments, microarrays were also treated with 100 mM lithium chloride to inhibit G4 formation. For experiments examining dsDNA, single-stranded DNA probes were made double-stranded using a primer complementary to a 24-mer constant sequence following the method described previously.^23,24 Double stranding efficiency was monitored using 4% Cy3-dCTP.
Protein or molecule-bound microarrays were scanned with the G5761A SureScan Dx Microarray Scanner System (Agilent) to detect a Cy5 signal at two laser settings (30 and 100 PMT) to ensure signal intensities were below saturation. Spot intensities from microarray images were extracted using the Agilent Feature Extraction Software and are reported as raw fluorescence units. All binding assays were performed at least twice, with high agreement between replicates (R>0.8). Microarrays with the fewest number of saturated spots were used for further analysis. […] The measured array data (Design 3, PDS) and predictions were normalized using the following
Custom G4 microarrays have been designed that contain a total of 19,249 G4 DNA sequences [31, the entirety of disclosure of which, including the supplemental information, is incorporated herein by reference]. […] After washing to remove the unbound Cy5-PDS and BMVC, the fluorescence intensities of Cy5-PDS bound to DNA oligonucleotides were detected using a fluorescence scanner. The binding selectivity of BMVC to different G4 structures was assessed by measuring the relative fluorescence intensity reduction of Cy5-PDS as BMVC concentration increased. […]

MYC_14/23T G4 = assay: G4 microarray competition with Cy5-PDS, MYC_14/23T; type: binding, human; conditions: MYC_14/23T G4, 1 μM BMVC and 1 μM Cy5-PDS
Procedure: (§1) Custom G4 microarrays have been designed that contain a total of 19,249 G4 DNA sequences [31, the entirety of disclosure of which, including the supplemental information, is incorporated herein by reference]. The G4 microarrays were created by covalently attaching thousands of unique G4-forming DNA 60-mers to a glass surface. Pyridostatin (PDS) is a known G4-interactive compound. […] To test the binding selectivity of BMVC, competition experiments using custom G4 microarrays were performed. The addition of potassium-containing solution to G4-forming oligonucleotides induced G4 formation. […] After washing to remove the unbound Cy5-PDS and BMVC, the fluorescence intensities of Cy5-PDS bound to DNA oligonucleotides were detected using a fluorescence scanner. The binding selectivity of BMVC to different G4 structures was assessed by measuring the relative fluorescence intensity reduction of Cy5-PDS as BMVC concentration increased.
(§2) To determine the G4-binding selectivity of BMVC, the BMVC binding to known G4 structures was examined, including 7 well-studied MYC promoter G4 sequences, 15 other oncogene promoter G4 sequences, and 3 human telomeric G4 sequences (TABLE 4). BMVC competes with the binding of Cy5-PDS to most G4 sequences in a dose-dependent manner as indicated by reduced fluorescence intensities (FIG. 8a). […]

[2] = biological target: various G4 structures (MYC, VEGF, human telomeric G4s); assay: Apparent dissociation constant by BMVC fluorescence; type: binding; conditions: 20 nM BMVC, 25° C.
Procedure: FIG. 11 Apparent dissociation constant (Kd, app) of BMVC binding to various G4 structures determined by BMVC fluorescence. Conditions: 20 nM BMVC, 25° C., pH 7, 100 mM K+ (100 mM Na+ for wtTel22).

human telomeric G4s = assay: G4 microarray competition with Cy5-PDS, telomeric G4s; type: binding; conditions: 1 μM BMVC and 1 μM Cy5-PDS
Procedure: as §1, §2

## C[n+]1ccc(/C=C/c2ccc3[nH]c4ccc(/C=C/c5cc[n+](C)cc5)cc4c3c2)cc1.[I-].[I-] [BMVC, 3,6-Bis(1-methyl-4-vinylpyridinium) carbazole diiodide]
[1]; 1 μM unlabeled ligand and 1 μM Cy5-PDS
  binding selectivity profile to different G4 sequences: more pronounced binding selectivity
[1]; most known G4s, 1 μM Cy5-PDS, equimolar (1 μM) BMVC
  reduction of fluorescence intensity of Cy5-PDS: 50%
MYC_14/23T G4
  reduction of Cy5-PDS binding among all parallel G4s: largest reduction
[2]; pH 7, 100 mM K+
  apparent dissociation constant (Kd, app), ranking for MYC_14/23T G4: highest affinity
[2]; pH 7, 100 mM K+ (100 mM Na+ for wtTel22)
  binding to parallel G4s (MYC, VEGF) vs human telomeric G4s by fluorescence: stronger than the human telomeric G4s
Human telomeric G4s
  inhibition of Cy5-PDS binding to human telomeric G4s: significantly inhibited
